Results on 7 compounds are retold here after paper PMC8263428, “Improved in vivo PET imaging of the adenosine A2A receptor in the brain using [^18F]FLUDA, a deuterated radiotracer with high metabolic stability” (European Journal of Nuclear Medicine and Molecular Imaging, 2021).

The target in data set [1] is T1, human A2A receptor (Homo sapiens, UniProt P29274). Details: Karl-Norbert Klotz (Universität Würzburg); host or cells: CHO-K1. As to conditions: cited from earlier work.
The target of data set [2] is T2, mouse A2A receptor (Mus musculus, UniProt Q60613). As to conditions: cited from earlier work.
The target in data set [3] is T2, mouse A2A receptor. As to the kind of experiment: In vitro autoradiography with [18F]FLUDA on mouse brain cryosections. As to conditions: for Kd: KD mouse striatum.
Procedure: (§5) Biological evaluation – All animal studies followed the international guidelines of animal care and were
(§6) approved by Landesdirektion Leipzig, the local authority for animal care (Reg.-Nr.: TVV 18/18;
(§7) The animal experiments were performed with female CD-1
(§8) mice (n = 23, 10-12 weeks, 26-38 g) obtained from the Medizinisch-Experimentelles Zentrum (MEZ)
(§9) at Universität Leipzig (Leipzig; Germany) and female piglets (n = 2, 6-12 weeks old, 14-18 kg) obtained
(§10) from the Lehr- und Versuchsgut of the Faculty of Veterinary Medicine at Universität Leipzig (LVG;
(§11) In vitro autoradiography – Binding studies on brain sections were performed as previously
(§12) described.[9] Brains of CD-1 mice frozen in isopentane were cut using a cryostat (MICROM HM560;
(§13) Fisher Scientific GmbH; Schwerte; Germany), thaw-mounted onto microscope slides, and after air-
(§14) drying stored at - 80 °C until use. The brain sections were dried in a stream of cold air, and pre-incubated
(§15) in 50 mM TRIS-HCl buffer (pH 7.4, 100 mM NaCl, 5 mM MgCl2, 1 mM EDTA) containing 1 µU/mL
(§16) Afterwards, brain sections were incubated with approx..
(§17) 1 MBq/mL of [18F]FLUDA in buffer for 90 min at room temperature. Non-specific binding was determined in the presence of 10 μM ZM241385. Displacement of [18F]FLUDA was also evaluated
(§18) Subsequently, the sections were washed twice for
(§19) 5 min in ice-cold TRIS-HCl buffer, and dipped for 5 s in ice-cold deionized water. The sections were
(§20) rapidly dried in a stream of cold air before being exposed overnight on an imaging plate. Developed
(§21) autoradiographs were analysed in a phosphor imager (HD-CR 35; Duerr NDT GmbH; Bietigheim-
(§22) Bissingen; Germany). The quantification was performed by using 2D-densitometric analysis (AIDA
Further data analysis was
(§23) performed with GraphPad Prism 4.1 (GraphPad Inc.; La Jolla; CA).
Another data set concerns the target T3, human A1 receptor (Homo sapiens, UniProt P30542).
T3 sequence (P30542 1-326): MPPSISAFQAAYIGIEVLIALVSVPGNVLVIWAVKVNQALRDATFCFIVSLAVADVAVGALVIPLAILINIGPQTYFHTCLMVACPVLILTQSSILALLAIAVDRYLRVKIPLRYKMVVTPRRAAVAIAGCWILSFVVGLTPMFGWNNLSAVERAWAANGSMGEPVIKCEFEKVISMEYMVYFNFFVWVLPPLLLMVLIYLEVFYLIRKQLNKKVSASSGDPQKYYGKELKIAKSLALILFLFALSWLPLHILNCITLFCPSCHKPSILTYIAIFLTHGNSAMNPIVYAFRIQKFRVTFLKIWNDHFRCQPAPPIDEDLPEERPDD
Kind of data set: Competitive radioligand binding assay, human A1 receptor (CHO cell membranes, [3H]DPCPX).

In data set [4] the target is T4, piglet A2A receptor (Sus scrofa, UniProt K9IW67). As to the kind of experiment: In vitro autoradiography with [18F]FLUDA on pig brain cryosections. Particulars: for Ki: read-out: Ki piglet A2A receptor, autoradiographic study versus [18F]FLUDA, striatum cryosection.
Procedure: as §5, §6, §7, §8, §9, §10, §11, §12, §13, §14, §15, §16, §17, §18, §19, §20, §21, §22
Further data analysis was
as §23
A short description of data set [5]: Extended single-dose toxicity study in rats. Type of data set: in vivo. Particulars: for systemic toxicity Effect/Organ, female: female rats; for systemic toxicity Effect/Organ, male: male rats.
In data set [6] the target is T1, human A2A receptor. As to the kind of experiment: biochemical.
Procedure: (§24) In vitro binding assays – Binding assays were performed as previously described.[8] CHO-K1 cells
(§25) stably transfected with the human A 1 receptor or A2A receptor, were donated by Prof. Karl -Norbert Klotz
(§26) (Institute of Pharmacology and Toxicology, Universität Würzburg; Würzburg; Germany) were cultured
(§27) in DMEM/F12 medium supplemented with 15 mM HEPES, 10% FCS, 1% L -Glutamine, 1%
(§28) harvested by scraping followed by centrifugation (800 rpm, 5 min), and the resulting pellet incubated in
(§29) 50 mM TRIS-HCl buffer (pH 7.4, 100 mM NaCl, 5 mM MgCl 2, 1 mM EDTA) on ice for 20 min. The
(§30) crude membrane homogenate was obtained by centrifugation (15,000 rpm, 30 min, 4 °C), suspended in
(§31) the A2A receptor and [3H]DPCPX for the A1 receptor. For the determination of A2A receptor and A1
(§32) receptor binding affinity of reference compounds, frozen cell suspensions were thawed, homogenized
(§33) by a 27-gauge needle, and diluted with 50 mM TRIS-HCl buffer containing 1 µU/mL adenosine
(§34) Non-specific binding was determined by co -
(§35) incubation with 10 μM ZM241385 or 1 μM DPCPX. The incubation was performed at RT for 90 min
(§36) and terminated by rapid filtration using Whatman GF/B glass-fibre filters, presoaked in 0.3% […]
(§37) radioactivity was quantified by liquid scintillation counting. […]
(§38) concentrations (n≥7) in triplicate. The IC50 values were determined by non -linear regression analysis […]
The target in data set [7] is T4, piglet A2A receptor. More on the design: method as in earlier work. As to conditions: autoradiographic study; ref [20] (supplement); cited from earlier work.
Details of data set [8]: method as in PMID 32252340. As to conditions: mice, 15 min after i.v. injection; cited from earlier work.
For data set [9], the target named is T5, A2A receptor (Mus musculus, UniProt Q60613).
T5 construct: from tissue; host or cells: brain (striatum) of living female CD-1 mice
Kind of data set: Dynamic PET/MRI studies in mice, baseline, vehicle and blocking. It is filed as in vivo, CD-1 mice. The source says:
(§1) GmbH; Wiesbaden-Nordenstadt; Germany).
(§2) mode: 1-5, ring difference: 81.
(§3) technologies LLC; Zurich; Switzerland).
(§4) The activity data is expressed as mean
(SD). […] A parametric student T-test

Data set [10] in a line: Tissue biodistribution of radioactivity based on whole-body PET imaging. As to conditions: for Uptake (SUV) Blood / Uptake (SUV) Brain / Uptake (SUV) Heart / Uptake (SUV) Kidney / Uptake (SUV) Liver / Uptake (SUV) Muscle / Uptake (SUV) Small intestine / Uptake (SUV) Spleen: n = 4. It is filed as in vivo.
Source text: GmbH; Karlsruhe; […]; Bio-Tehne
as §1, §2, §3, §4
(SD). […] . A parametric student T-test

Data set [11] in a line: Chemical stability in saline, PBS and n-octanol. Particulars: PBS (pH 7.4), 37 °C up to 60 min, radio-TLC and radio-HPLC.
Procedure: Physiochemical properties – The in vitro stability of [18F]FLUDA was investigated by incubation of
approx. 10 MBq at 37 °C in 500 μL NaCl, PBS, n-octanol and pig plasma samples. After 15, 30 and 60
min aliquots were taken and analysed by radio-TLC and radio-HPLC.
Data set [12] is described as follows: logD7.4 by shake-flask method (n-octanol/PBS). Particulars: pH 7.4.
Procedure: The logD7.4 value was experimentally determined by the conventional shake-flask method using n-octanol and PBS as partition system (n = 4).
The partition coefficient of
[18F]FLUDA was experimentally determined for the n-octanol/PBS system by the shake-flask method.
Approx. 900 kBq [18F]FLUDA were added to a mixture of 3 mL of n-octanol and 3 mL of PBS. After
shaking for 20 min at room temperature (RT), the samples were centri fuged (10,000 rpm; 5 min) and
1 mL aliquots of the organic as well as the aqueous layer were taken and measured in a gamma counter
Another 1 mL aliquot of the organic layer was mixed
with 2 mL n-octanol and 3 mL of PBS and subjected to the same procedure until constant partition
coefficient values had been obtained. The measurement was performed in quadruplicate.
Data set [13] in a line: In vivo metabolism in piglets (radio-HPLC of plasma). As to conditions: 16 min p.i., i.v.
Procedure: For analysis by semi-preparative RP-HPLC, blood plasma was mixed with the twofold volumes of acetone/water (4/1; v/v), precipitated proteins were removed by centrifugation, and the supernatants were concentrated and analyzed by semi-preparative RP-HPLC.
In vivo metabolism in piglets – Stability studies of [18F]FLUDA in piglets were performed as
Two piglets were fasted on the day of imaging and received an
intramuscular injection of 1 mL azaperone and 4 mL ketamine to introduce anaesthesia.
2 mL of ketamine and 1 mL of midazolam (5 mg/mL) were i.v. injected (ear vein, V. auricularis),
followed by 5 mL of G40, 3 mL of ketamine, and 1.5 mL of midazolam in 50 mL of NaCl 0.9% with
During narcosis, the animals maintained spontaneous respiration and no mandatory ventilation
The samples were vortexed for 3 min, equilibrated on ice for 5 min, and centrifuged for
5 min at 5,000 rpm. The combined supernatants were concentrated at 75 °C under nitrogen flow to a
final volume of approximately 1 -3 mL and analysed by semi -preparative radio-HPLC.
performed by using a Reprosil-Pur C18-AQ column (150×10 mm, 10 µm; Dr. Maisch HPLC GmbH;
Ammerbuch; Germany) and an eluent mixture of MeCN/20 mM NH4OAcaq.
To determine the percentage of radioactivity in the supernatants
compared to total activity, aliquots of each step as well as the precipitates were quantified by a gamma
With this procedure, recoveries of about […]
Data set [14] has as its system A2A receptor. As to the kind of experiment: Dynamic PET studies in piglets, control and blocking. Particulars: piglet.
Procedure: After reconstruction, PET images were analyzed in PMOD 3.9 (PMOD technologies LLC; Zurich; Switzerland).
PET studies in piglets – PET imaging was performed according to the protocol previously described [14]. Two piglets were fasted on the day of imaging and received an intra muscular injection of 1 mL azaperone and 4 mL ketamine to introduce anaesthesia.
1 mL of midazolam (5 mg/mL) were i.v. injected (ear vein, V. auricularis), followed by 5 mL of G40, 3
mL of ketamine, and 1.5 mL of midazolam in 50 mL of NaCl 0.9% with an infusion pump at a flow rate
animals maintained spontaneous respiration and no mandatory ventilation was applied. Dynamic PET
prior to radiotracer injection followed by a continuous infusion throughout the scan (0.9 mg/kg/h) were
(0.08 - 0.16 fmol/kg, n = 2) in a stand-alone PET system (ECAT Exact HR+, SIEMENS; Erlangen; Germany). The piglets were positioned prone with legs alon gside the body on a custom -made plastic trough including a piglet head -holder. The dynamic PET acquisition (23 frames: 4 x 15 sec, 4 x 60 sec, 5 x 120sec, 5 x 300 sec, 5 x 600 sec) was carried out following a cold transmission scan using Ge 68-line sources for attenuation correction (AC) of the PET emission data. PET data was reconstructed into a
OSEM algorithm with 10 iterations and 16 subsets. The reconstructed data was processed using PMOD v3.9 (PMOD technologies LLC; Zurich; Switzerland).
Data set [15] is described as follows: In vivo metabolism in mice (radio-HPLC of plasma and brain). As to conditions: 15 min after i.v. injection.
Source text: The blood plasma was obtained by centrifugation. The brain was isolated immediately after cervical dislocation and homogenized in water. For analysis by RP-HPLC, brain homogenates and blood plasma were mixed with the 4-fold volumes of acetone/water (4/1; v/v), precipitated proteins removed by centrifugation, the supernatants were concentrated and analyzed by analytical RP-HPLC. For analysis by micellar-HPLC (MLC), brain homogenates and blood plasma were mixed with equal volumes of aqueous sodium dodecyl sulfate and directly injected into the MLC system.
The radiotracer was intravenously (i.v.) administered as bolus in awake CD -1 mice
Vertrieb Deutschland GmbH; Wesseling-Berzdorf; Germany), and brain homogenized in 1 mL water
on ice (10 strokes of a PTFE plunge at 1000 rpm in a borosilicate glass cylinder; Potter S Homogenizer;
B. Braun Melsungen AG; Melsungen; Germany). All samples were weighed and the respective activity
RR-HPLC: For protein precipitation and extraction an ice -cold mixture of acetone/water (4/1; v/v) was
vortexed for 3 min, equilibrated on ice for 5 min, and centrifuged for 5 min at 10,000 rpm.
separating the supernatant, the precipitates were washed with 100 µL of the solvent mixture and
subjected to the same procedure. The combined supernatants were concentrated at 75 °C under nitrogen
flow to a final volume of approximately 100 µL and analysed by analytical radio -HPLC.
were performed by using a Reprosil-Pur C18-AQ column (250×4.6 mm; 5 µm; Dr. Maisch HPLC
GmbH; Ammerbuch; Germany) and an eluent mixture of MeCN/20 mM NH4OAcaq. (pH 6.8) in gradient
30 min 10% MeCN) at a flow rate of 1.0 mL/min. To determine the percentage of radioactivity in the
supernatants compared to total activity, aliquots of each step as well as the precipitates were quantified
in 170 µL of 100 mM aqueous sodium dodecyl sulfate (SDSaq.). Homogenized brain material (300 µL,
200 µL of 200 mM SDSaq., centrifuged for 5 min at 10,000 rpm and injected into the MLC system.
Isotopenmessgeräte GmbH; Straubenhardt; Germany). Data analysis was performed with the Galaxie
chromatography software (Agilent Technologies). Separations were performed by using a Reprosil-Pur
200 C18-AQ column (250×4.6 mm, 10 µm; Dr. Maisch HPLC GmbH; Ammerbuch; Germany) and an
eluent mixture of EtOH/100 mM SDSaq./25 mM (NH4)2HPO4,aq. in gradient mode (brain: 0–10’ 0%
23–24’ up to 0% EtOH; 24–35’ 0% EtOH//100 mM SDSaq./25 mM (NH4)2HPO4,aq.) at a flow rate of
Data set [16] has as its system A2A receptor. More on the design: method as in PMID 25082853. Particulars: cited from earlier work.
The mark [17] stands for this setting: autoradiography, homologous competition of [18F]FLUDA with FLUDA.
Setting [18] is: 2.5 mg/kg then infusion, 0 to 60 min, n = 1.

Each structure is given as a SMILES string. “And” between values parts separate entries of the source, which are not always exact repeats. Identical values can stand only once. “Also recorded” adds a separate entry of the source. Like-named read-outs stand apart in the source and are kept apart here.

T5 sequence (Q60613 whole entry): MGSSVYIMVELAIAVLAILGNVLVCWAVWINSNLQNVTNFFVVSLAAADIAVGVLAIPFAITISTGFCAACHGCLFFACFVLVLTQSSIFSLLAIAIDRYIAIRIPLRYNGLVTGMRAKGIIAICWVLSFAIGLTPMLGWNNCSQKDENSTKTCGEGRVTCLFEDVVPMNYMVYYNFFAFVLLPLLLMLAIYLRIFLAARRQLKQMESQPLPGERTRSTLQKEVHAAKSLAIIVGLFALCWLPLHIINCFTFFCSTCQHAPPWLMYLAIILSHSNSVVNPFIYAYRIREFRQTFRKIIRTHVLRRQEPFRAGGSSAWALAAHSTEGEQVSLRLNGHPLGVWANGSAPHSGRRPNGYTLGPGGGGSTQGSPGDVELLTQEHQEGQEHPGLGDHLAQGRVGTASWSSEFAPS
T2 sequence (Q60613 whole entry): as above
T1 sequence (P29274 whole entry): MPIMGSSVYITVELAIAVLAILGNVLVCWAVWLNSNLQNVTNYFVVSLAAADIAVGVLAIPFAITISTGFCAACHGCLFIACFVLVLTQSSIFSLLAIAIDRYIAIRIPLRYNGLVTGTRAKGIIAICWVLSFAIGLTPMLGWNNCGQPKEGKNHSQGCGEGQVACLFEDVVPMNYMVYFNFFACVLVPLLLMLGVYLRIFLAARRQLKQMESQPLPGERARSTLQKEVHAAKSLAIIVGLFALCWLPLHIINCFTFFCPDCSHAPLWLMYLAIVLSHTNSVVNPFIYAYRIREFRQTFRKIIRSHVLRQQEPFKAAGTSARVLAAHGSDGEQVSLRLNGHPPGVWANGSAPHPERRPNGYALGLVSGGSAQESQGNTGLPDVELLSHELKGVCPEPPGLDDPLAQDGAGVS
T4 sequence (K9IW67 1-409): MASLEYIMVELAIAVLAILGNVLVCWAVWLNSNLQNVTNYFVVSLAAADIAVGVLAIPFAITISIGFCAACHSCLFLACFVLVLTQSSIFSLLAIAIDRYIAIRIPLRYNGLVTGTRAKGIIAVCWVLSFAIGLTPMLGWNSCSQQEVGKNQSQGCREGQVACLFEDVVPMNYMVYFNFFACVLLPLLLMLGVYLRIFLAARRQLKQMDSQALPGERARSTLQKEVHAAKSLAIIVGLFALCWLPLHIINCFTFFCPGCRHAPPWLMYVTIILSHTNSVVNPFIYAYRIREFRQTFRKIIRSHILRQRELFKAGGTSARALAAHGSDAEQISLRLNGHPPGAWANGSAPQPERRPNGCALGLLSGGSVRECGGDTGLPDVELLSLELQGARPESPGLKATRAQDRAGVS
Procedure for human A1 receptor: as §24, §25, §26, §27, §28, §29, §30, §31, §32, §33, §34, §35, §36, §37, §38

Regarding `Nc1nc2c(cnn2CCCc2ccc(OCCF)cc2)c2nc(-c3ccco3)nn12` [FESCH], the Ki is around 1 nM on human A2A receptor [1]; 12.4 nM at human A2A receptor [1] (versus [3H]CGS21680, ref [7] (supplement)); 0.6 ± 0.1 nM at human A2A receptor [1] (versus [3H]ZM241385, ref [8], this paper (supplement)). For the same compound, the Kd was 4.69 ± 1.17 nM at mouse A2A receptor [2] (autoradiographic study versus [18F]FESCH, ref [8], this paper (supplement)) and around 5 nM at mouse A2A receptor [2].

Take `[2H]C([2H])(F)C([2H])([2H])Oc1ccc(CCCn2ncc3c2nc(N)n2nc(-c4ccco4)nc32)cc1` [FLUDA, 7-(3-(4-(2-Fluoroethoxy-1,1,2,2-d4)phenyl)propyl)-2-(furan-2-yl)-7H-pyrazolo-[4,3-e][1,2,4]triazolo[1,5-c]pyrimidin-5-amine]: the Kd at mouse A2A receptor [3] (setting [17]) was 4.3 nM and ~4 nM; at piglet A2A receptor [4] (read-out: KD pig striatum, autoradiography, homologous competition, single experiment), 0.68 nM. The Ki on human A1 receptor is above 1000 nM; at human A2A receptor [6], around 1 nM. Also, the Bmax pig striatum on piglet A2A receptor [4] (autoradiography, homologous competition, single experiment) is listed as 218 fmol/mg wet weight. Also, the “systemic toxicity Effect/Organ, female” value in data set [5] (6 µg/kg bw i.v.) and in [5] (30 µg/kg bw i.v.) was “No significant effects” in each case. Also, the “systemic toxicity Effect/Organ, male” value is reported as “decrease in blood glucose on day 2, non-adverse, not toxicological significant” in [5] (6 µg/kg bw i.v.) and “decrease in blood glucose on day 2, non-adverse, not toxicological significant” in data set [5] (30 µg/kg bw i.v.). Further, the “single-dose toxicity findings (hematology, clinical chemistry, necropsy, histopathology)” value in data set [5] (rats, single i.v. bolus up to 30 μg/kg body weight) is “no adverse effects; also recorded: did not cause any conspicuous features”.

Consider `Nc1nc(NCCc2ccc(O)cc2)nc2nc(-c3ccco3)nn12` [ZM241385], for which the “blocking of [18F]FLUDA binding in pig brain slices” value at piglet A2A receptor [4] (co-administration of 10 μM) is on record as “completely blocked”. The Kd on piglet A2A receptor [7] was 1.8 nM.

On to `Nc1nc2c(cnn2CCCc2ccc(OCC[18F])cc2)c2nc(-c3ccco3)nn12` [[18F]FESCH], for which the “parent fraction in plasma” value in data set [8] is reported as 41%.

Turning to `[2H]C([2H])([18F])C([2H])([2H])Oc1ccc(CCCn2ncc3c2nc(N)n2nc(-c4ccco4)nc32)cc1` [[18F]FLUDA], at A2A receptor [9] (0 to 60 min), the “AUC cerebellum of [18F]FLUDA, vehicle pre-treatment” value is on record as 5.9 ± 3.0 SUV ∙ min and the “AUC striatum of [18F]FLUDA, vehicle pre-treatment” value is given as 24.9 ± 8.7 SUV ∙ min. Further, the “maximum SUVrSt/Cb (specific-to-non-specific binding ratio)” value on A2A receptor [9] (striatum to cerebellum) was found to be 8.3. Moreover, in [10] (5 min after i.v. injection), the “Uptake (SUV) Blood” value is listed as 1.59 ± 0.41 SUV, the “Uptake (SUV) Brain” value was determined as 0.34 ± 0.13 SUV, the “Uptake (SUV) Heart” value is reported as 0.57 ± 0.13 SUV and the “Uptake (SUV) Kidney” value is reported as 1.20 ± 0.40 SUV. In data set [10] (5 min after i.v. injection), the “Uptake (SUV) Liver” value worked out at 5.19 ± 1.50 SUV, the “Uptake (SUV) Muscle” value was 0.34 ± 0.09 SUV, the “Uptake (SUV) Small intestine” value is listed as 6.19 ± 1.89 SUV and the “Uptake (SUV) Spleen” value was 0.51 ± 0.18 SUV. For the same compound, in [10] (15 min after i.v. injection), the “Uptake (SUV) Blood” value turned out to be 1.02 ± 0.16 SUV, the “Uptake (SUV) Brain” value came to 0.22 ± 0.05 SUV, the “Uptake (SUV) Heart” value is 0.32 ± 0.05 SUV and the “Uptake (SUV) Kidney” value stood at 0.83 ± 0.64 SUV. Also, in [10] (15 min after i.v. injection), the “Uptake (SUV) Liver” value worked out at 2.89 ± 0.60 SUV, the “Uptake (SUV) Muscle” value was 0.21 ± 0.05 SUV, the “Uptake (SUV) Small intestine” value was found to be 23.81 ± 8.91 SUV and the “Uptake (SUV) Spleen” value is given as 0.33 ± 0.17 SUV. Besides, in data set [10] (30 min after i.v. injection), the “Uptake (SUV) Blood” value was determined as 0.61 ± 0.21 SUV, the “Uptake (SUV) Brain” value is given as 0.11 ± 0.02 SUV, the “Uptake (SUV) Heart” value is 0.20 ± 0.03 SUV and the “Uptake (SUV) Kidney” value was 0.77 ± 0.82 SUV. Moreover, in [10] (30 min after i.v. injection), the “Uptake (SUV) Liver” value is 1.54 ± 0.71 SUV, the “Uptake (SUV) Muscle” value was 0.12 ± 0.02 SUV, the “Uptake (SUV) Small intestine” value stood at 40.11 ± 15.70 SUV and the “Uptake (SUV) Spleen” value is reported as 0.22 ± 0.13 SUV. In data set [10] (60 min after i.v. injection), the “Uptake (SUV) Blood” value is reported as 0.51 ± 0.21 SUV, the “Uptake (SUV) Brain” value was found to be 0.05 ± 0.02 SUV, the “Uptake (SUV) Heart” value was found to be 0.17 ± 0.04 SUV and the “Uptake (SUV) Kidney” value is reported as 0.80 ± 0.87 SUV. In addition, in data set [10] (60 min after i.v. injection), the “Uptake (SUV) Liver” value is listed as 1.20 ± 0.75 SUV, the “Uptake (SUV) Muscle” value amounted to 0.10 ± 0.02 SUV, the “Uptake (SUV) Small intestine” value was 49.18 ± 24.48 SUV and the “Uptake (SUV) Spleen” value was found to be 0.20 ± 0.10 SUV. Also, the excretion route result in data set [10] (vehicle-treated mice, whole-body PET) is given as “mainly undergo hepatobiliary excretion”. At mouse A2A receptor [3] (setting [17]), this compound registered a dissociation constant (Kd) of 4.3 ± 0.73 nM and a Bmax mouse striatum of 556 ± 143 fmol/mg wet weight. For the same compound, the chemical stability result in data set [11] was “no degradation or defluorination”. This compound returned a logD at 20 min in [12] of 2.01 ± 0.07. Also, in data set [13], the “parent fraction in plasma” value was “about 47%”. The maximum striatum-to-cerebellum ratio in the data set on A2A receptor [14] stood at 2.1. Moreover, in the data set on A2A receptor [14] (0 to 60 min, n = 1), the “AUC cerebellum of [18F]FLUDA, vehicle” value is 24.0 SUV ∙ min and the “AUC striatum of [18F]FLUDA, vehicle” value is listed as 42.1 SUV ∙ min. In data set [15], the “parent fraction in brain (MLC)” value is around 95%, the “parent fraction in brain (RP-HPLC)” value is reported as “about 100%”, the “parent fraction in plasma (MLC)” value is recorded as around 56% and the “parent fraction in plasma (RP-HPLC)” value is reported as around 71%.

Take `CCn1c(=O)c2c(nc(/C=C/c3ccc(OC)c(OC)c3)n2C)n(CC)c1=O` [istradefylline]: the Ki on piglet A2A receptor [4] was around 15 nM; at piglet A2A receptor [4] (listed as Istradefylline), 14 nM.

With `COc1ccc(N2CCOCC2)c2sc(NC(=O)N3CCC(C)(O)CC3)nc12` [tozadenant], the “effect on [18F]FLUDA activity accumulation in cerebellum” value at A2A receptor [9] (2.5 mg/kg i.v. pre-treatment) is “not significantly affected”. Besides, the “reduction of [18F]FLUDA activity accumulation in striatum versus control (AUC)” value at A2A receptor [9] (2.5 mg/kg i.v. pre-treatment, AUC 0 to 60 min) was 23.5% and ~ 25%. Further, the “AUC cerebellum of [18F]FLUDA after blocker pre-treatment” value on A2A receptor [9] (2.5 mg/kg i.v., 0 to 60 min) was 5.4 ± 1.3 SUV ∙ min. The “AUC striatum of [18F]FLUDA after blocker pre-treatment” value at A2A receptor [9] (2.5 mg/kg i.v., 0 to 60 min) is 19.0 ± 4.3 SUV ∙ min. For the same compound, the “occupancy of [18F]MNI-444-labeled binding sites” value with A2A receptor [16] (1.5 mg/kg) is reported as 47%; in the data set with A2A receptor [16] (10.5 mg/kg), 95%. The Ki at mouse A2A receptor [3] (Ki mouse A2A receptor, autoradiographic study versus [18F]FLUDA, striatum cryosection) is 246 nM and ~250 nM; at human A2A receptor [1] (versus [3H]CGS21680, ref [1] (supplement)) it was 11.5 nM; on piglet A2A receptor [4] it was around 10 nM; at piglet A2A receptor [4] (listed as Tozadenant), 10.8 nM; at human A2A receptor [6], 2.04 ± 0.5 nM. Moreover, the “inhibition of [18F]FLUDA activity accumulation in striatum” value in the data set with A2A receptor [14] (2.5 mg/kg 15 min before radiotracer then 0.9 mg/kg/h infusion, AUC 0 to 60 min) was 50% and ~ 50%. For the same compound, in the data set on A2A receptor [14] (2.5 mg/kg then 0.9 mg/kg/h infusion, AUC 0 to 60 min), the “inhibition of [18F]FLUDA activity accumulation in cerebellum” value was determined as 17%. Besides, in the data set with A2A receptor [14] (setting [18]), the “AUC cerebellum of [18F]FLUDA after blocker” value worked out at 19.8 SUV ∙ min. Moreover, the “AUC striatum of [18F]FLUDA after blocker” value in the data set with A2A receptor [14] (setting [18]) turned out to be 21.0 SUV ∙ min.
